Assay: xn = mol fraction of the nth substance listed

CC#N + CCCCO
viscosity [mPa·s]
Conditions | 298.15 K | 303.15 K | 308.15 K | 313.15 K | 318.15 K | 323.15 K
101 kPa, x1 = 0.055 | 2.123 | 1.695 | 1.365 | – | – | –
101 kPa, x1 = 0.0999 | – | 1.696 | 1.517 | 1.364 | 1.231 | 1.111
101 kPa, x1 = 0.1178 | 1.764 | 1.422 | 1.159 | – | – | –
101 kPa, x1 = 0.1952 | 1.449 | 1.186 | 0.978 | – | – | –
101 kPa, x1 = 0.2 | – | 1.322 | 1.197 | 1.085 | 0.986 | 0.9
101 kPa, x1 = 0.2302 | 1.322 | 1.086 | 0.899 | – | – | –
101 kPa, x1 = 0.2997 | – | 1.054 | 0.957 | 0.876 | 0.803 | 0.738
101 kPa, x1 = 0.3526 | 1.016 | 0.854 | 0.721 | – | – | –
101 kPa, x1 = 0.4 | – | 0.842 | 0.781 | 0.723 | 0.667 | 0.619
101 kPa, x1 = 0.4775 | 0.792 | 0.681 | 0.585 | – | – | –
101 kPa, x1 = 0.5 | – | 0.695 | 0.643 | 0.601 | 0.555 | 0.519
101 kPa, x1 = 0.5911 | 0.615 | 0.538 | 0.472 | – | – | –
101 kPa, x1 = 0.5998 | – | 0.574 | 0.536 | 0.502 | 0.47 | 0.442
101 kPa, x1 = 0.6999 | – | 0.482 | 0.453 | 0.427 | 0.402 | 0.381
101 kPa, x1 = 0.7026 | 0.504 | 0.445 | 0.397 | – | – | –
101 kPa, x1 = 0.7906 | 0.433 | 0.391 | 0.352 | – | – | –
101 kPa, x1 = 0.8 | – | 0.413 | 0.391 | 0.374 | 0.354 | 0.336
101 kPa, x1 = 0.9 | – | 0.362 | 0.345 | 0.329 | 0.315 | 0.301
101 kPa, x1 = 0.9094 | 0.383 | 0.348 | 0.32 | – | – | –
101.3 kPa, x1 = 0.1671 | 1.475 | 1.336 | 1.204 | – | – | –
101.3 kPa, x1 = 0.311 | 1.029 | 0.937 | 0.849 | – | – | –
101.3 kPa, x1 = 0.4362 | 0.77 | 0.706 | 0.65 | – | – | –
101.3 kPa, x1 = 0.5462 | 0.605 | 0.566 | 0.535 | – | – | –
101.3 kPa, x1 = 0.6436 | 0.484 | 0.457 | 0.431 | – | – | –
101.3 kPa, x1 = 0.7303 | 0.441 | 0.408 | 0.391 | – | – | –
101.3 kPa, x1 = 0.8082 | 0.403 | 0.381 | 0.361 | – | – | –
101.3 kPa, x1 = 0.8784 | 0.387 | 0.367 | – | – | – | –
101.3 kPa, x1 = 0.942 | 0.348 | 0.327 | – | – | – | –

CC#N + O
Conditions | viscosity [mPa·s]
293.15 K, 101 kPa, x1 = 0.032 | 1.095
293.15 K, 101 kPa, x1 = 0.057 | 1.11
293.15 K, 101 kPa, x1 = 0.097 | 1.103
293.15 K, 101 kPa, x1 = 0.154 | 1.023
293.15 K, 101 kPa, x1 = 0.2 | 0.963
293.15 K, 101 kPa, x1 = 0.395 | 0.723
293.15 K, 101 kPa, x1 = 0.596 | 0.516
293.15 K, 101 kPa, x1 = 0.8 | 0.413
293.15 K, 101.33 kPa, x1 = 0.03 | 1.091
293.15 K, 101.33 kPa, x1 = 0.06 | 1.124
293.15 K, 101.33 kPa, x1 = 0.12 | 1.105
293.15 K, 101.33 kPa, x1 = 0.22 | 1.029
293.15 K, 101.33 kPa, x1 = 0.29 | 0.9338
293.15 K, 101.33 kPa, x1 = 0.37 | 0.7979
293.15 K, 101.33 kPa, x1 = 0.43 | 0.722
293.15 K, 101.33 kPa, x1 = 0.61 | 0.5948
293.15 K, 101.33 kPa, x1 = 0.7 | 0.5389
293.15 K, 101.33 kPa, x1 = 0.87 | 0.4657
298.15 K, 101 kPa, x1 = 0.046 | 0.867
298.15 K, 101 kPa, x1 = 0.1 | 0.862
298.15 K, 101 kPa, x1 = 0.2 | 0.858
298.15 K, 101 kPa, x2 = 0.2626 | 0.42
298.15 K, 101 kPa, x2 = 0.4466 | 0.517
298.15 K, 101 kPa, x2 = 0.4952 | 0.554
298.15 K, 101 kPa, x2 = 0.6032 | 0.651
298.15 K, 101 kPa, x2 = 0.613 | 0.66
298.15 K, 101 kPa, x2 = 0.6508 | 0.669
298.15 K, 101 kPa, x2 = 0.7029 | 0.754
298.15 K, 101 kPa, x2 = 0.7445 | 0.801
298.15 K, 101 kPa, x2 = 0.7543 | 0.815
298.15 K, 101.3 kPa, x1 = 0.025 | 0.9497
298.15 K, 101.3 kPa, x1 = 0.05 | 0.9779
298.15 K, 101.3 kPa, x1 = 0.075 | 0.9826
298.15 K, 101.3 kPa, x1 = 0.1 | 0.9704
298.15 K, 101.3 kPa, x1 = 0.2019 | 0.8706
298.15 K, 101.33 kPa, x2 = 0.1028 | 0.375
298.15 K, 101.33 kPa, x2 = 0.2071 | 0.402
298.15 K, 101.33 kPa, x2 = 0.297 | 0.436
298.15 K, 101.33 kPa, x2 = 0.4021 | 0.495
298.15 K, 101.33 kPa, x2 = 0.4985 | 0.563
298.15 K, 101.33 kPa, x2 = 0.6057 | 0.656
298.15 K, 101.33 kPa, x2 = 0.6987 | 0.75
298.15 K, 101.33 kPa, x2 = 0.7843 | 0.842
298.15 K, 101.33 kPa, x2 = 0.8773 | 0.94
303.15 K, 101 kPa, x1 = 0.032 | 0.861
303.15 K, 101 kPa, x1 = 0.0498 | 0.8684
303.15 K, 101 kPa, x1 = 0.057 | 0.872
303.15 K, 101 kPa, x1 = 0.065 | 0.8736
303.15 K, 101 kPa, x1 = 0.084 | 0.8728
303.15 K, 101 kPa, x1 = 0.097 | 0.868
303.15 K, 101 kPa, x1 = 0.1498 | 0.8314
303.15 K, 101 kPa, x1 = 0.154 | 0.815
303.15 K, 101 kPa, x1 = 0.2 | 0.774
303.15 K, 101 kPa, x1 = 0.2534 | 0.7376
303.15 K, 101 kPa, x1 = 0.3831 | 0.6065
303.15 K, 101 kPa, x1 = 0.395 | 0.607
303.15 K, 101 kPa, x1 = 0.5071 | 0.5088
303.15 K, 101 kPa, x1 = 0.596 | 0.449
303.15 K, 101 kPa, x1 = 0.6075 | 0.4532
303.15 K, 101 kPa, x1 = 0.7039 | 0.4039
303.15 K, 101 kPa, x1 = 0.8 | 0.372
303.15 K, 101 kPa, x1 = 0.8042 | 0.3676
303.15 K, 101 kPa, x1 = 0.894 | 0.3442
308.15 K, 101 kPa, x1 = 0.046 | 0.707
308.15 K, 101 kPa, x1 = 0.0498 | 0.7729
308.15 K, 101 kPa, x1 = 0.065 | 0.7826
308.15 K, 101 kPa, x1 = 0.084 | 0.7812
308.15 K, 101 kPa, x1 = 0.1 | 0.705
308.15 K, 101 kPa, x1 = 0.1498 | 0.7485
308.15 K, 101 kPa, x1 = 0.2 | 0.697
308.15 K, 101 kPa, x1 = 0.2534 | 0.67
308.15 K, 101 kPa, x1 = 0.3831 | 0.5596
308.15 K, 101 kPa, x1 = 0.5071 | 0.4711
308.15 K, 101 kPa, x1 = 0.6075 | 0.4236
308.15 K, 101 kPa, x1 = 0.7039 | 0.3804
308.15 K, 101 kPa, x1 = 0.8042 | 0.3486
308.15 K, 101 kPa, x1 = 0.894 | 0.3278
313.15 K, 101 kPa, x1 = 0.032 | 0.698
313.15 K, 101 kPa, x1 = 0.0498 | 0.6998
313.15 K, 101 kPa, x1 = 0.057 | 0.707
313.15 K, 101 kPa, x1 = 0.065 | 0.7058
313.15 K, 101 kPa, x1 = 0.084 | 0.7062
313.15 K, 101 kPa, x1 = 0.097 | 0.707
313.15 K, 101 kPa, x1 = 0.1498 | 0.6782
313.15 K, 101 kPa, x1 = 0.154 | 0.668
313.15 K, 101 kPa, x1 = 0.2 | 0.641
313.15 K, 101 kPa, x1 = 0.2534 | 0.612
313.15 K, 101 kPa, x1 = 0.3831 | 0.5157
313.15 K, 101 kPa, x1 = 0.395 | 0.516
313.15 K, 101 kPa, x1 = 0.5071 | 0.441
313.15 K, 101 kPa, x1 = 0.596 | 0.399
313.15 K, 101 kPa, x1 = 0.6075 | 0.3978
313.15 K, 101 kPa, x1 = 0.7039 | 0.3598
313.15 K, 101 kPa, x1 = 0.8 | 0.34
313.15 K, 101 kPa, x1 = 0.8042 | 0.3318
313.15 K, 101 kPa, x1 = 0.894 | 0.3132
318.15 K, 101 kPa, x1 = 0.046 | 0.584
318.15 K, 101 kPa, x1 = 0.0498 | 0.635
318.15 K, 101 kPa, x1 = 0.065 | 0.6402
318.15 K, 101 kPa, x1 = 0.084 | 0.6409
318.15 K, 101 kPa, x1 = 0.1 | 0.58
318.15 K, 101 kPa, x1 = 0.1498 | 0.6185
318.15 K, 101 kPa, x1 = 0.2 | 0.578
318.15 K, 101 kPa, x1 = 0.2534 | 0.5635
318.15 K, 101 kPa, x1 = 0.3831 | 0.4801
318.15 K, 101 kPa, x1 = 0.5071 | 0.4101
318.15 K, 101 kPa, x1 = 0.6075 | 0.3754
318.15 K, 101 kPa, x1 = 0.7039 | 0.3408
318.15 K, 101 kPa, x1 = 0.894 | 0.2996
323.15 K, 101 kPa, x1 = 0.032 | 0.579
323.15 K, 101 kPa, x1 = 0.0498 | 0.5802
323.15 K, 101 kPa, x1 = 0.057 | 0.587
323.15 K, 101 kPa, x1 = 0.097 | 0.589
323.15 K, 101 kPa, x1 = 0.154 | 0.561
323.15 K, 101 kPa, x1 = 0.2 | 0.54
323.15 K, 101 kPa, x1 = 0.395 | 0.447
323.15 K, 101 kPa, x1 = 0.596 | 0.356
323.15 K, 101 kPa, x1 = 0.8 | 0.312
